{"source": "patent US20090028943A1", "about": "“PHARMACEUTICAL COMPOSITIONS” (priority 2005, published 2009)", "key": {"[1]": {"experiment": "stability of AZD2171 (hydrolysis, oxidation)", "type": "physicochemical", "description": "In order to counteract the plasticity of a drug such as AZD2171 a person skilled in the art would typically try to modify the material's properties with the addition of a complementary excipient such as a brittle filler. However this can limit the drug loading that can be achieved in a formulation, i.e. the percentage of active ingredient therein, and can lead to very large tablets which are difficult to swallow. […] Initial test formulations of AZD2171 were therefore limited to the use of two […] fillers namely lactose and mannitol. The test formulations comprised: […]"}, "[2]": {"test_system": "VEGF-stimulated endothelial cell proliferation (HUVEC)", "experiment": "HUVEC assay, VEGF-stimulated proliferation", "type": "cell-based", "settings": "Homo sapiens"}, "range of models": {"test_system": "range of models", "settings": "once-daily oral administration; cited from earlier work"}, "Calu-6 tumour xenograft": {"test_system": "Calu-6 tumour xenograft", "experiment": "in vivo solid tumour model", "settings": "once-daily oral, 28 days"}, "[3]": {"test_system": "basal endothelial cell proliferation (HUVEC)", "experiment": "HUVEC assay, basal proliferation", "type": "cell-based", "settings": "Homo sapiens"}}}
{"smiles": "COc1cc2c(Oc3ccc4[nH]c(C)cc4c3F)ncnc2cc1OCCCN1CCCC1", "note": "[AZD2171, 4-(4-fluoro-2-methyl-1H-indol-5-yloxy)-6-methoxy-7-(3-(pyrrolidin-1-yl)propoxy)quinazoline]", "values": [{"measurement": "compatibility with brittle filler dibasic calcium phosphate dihydrate", "setting": "[1]", "result": "showed hydrolysis"}, {"measurement": "stability", "setting": "[1]; degradation by hydrolysis and oxidation", "result": "relatively poor stability"}, {"measurement": "IC50", "setting": "[2]", "result": "0.4 ± 0.2", "unit": "nM"}, {"measurement": "anti-tumour activity in a range of models", "setting": "range of models", "result": "broad-spectrum anti-tumour activity"}, {"measurement": "inhibition of growth of Calu-6 tumour xenograft", "setting": "Calu-6 tumour xenograft; 1.5 mg/kg/day", "result": 49, "unit": "%"}, {"measurement": "inhibition of growth of Calu-6 tumour xenograft", "setting": "Calu-6 tumour xenograft; 3 mg/kg/day", "result": 69, "unit": "%"}, {"measurement": "inhibition of growth of Calu-6 tumour xenograft", "setting": "Calu-6 tumour xenograft; 6 mg/kg/day", "result": 91, "unit": "%"}, {"measurement": "IC50", "setting": "[3]", "result": "> 500", "unit": "nM"}]}
